Test results published in patent US20220389049A1, “REVERSIBLE TERMINATORS FOR DNA SEQUENCING AND METHODS OF USING THE SAME” (Centrillion Technologies, Inc., priority 2019, published 2022).

What was measured:
[1] = test system: growing DNA chain; assay: Enzymatic incorporation: primer extension with compound 15 into a growing DNA chain (FIG. 3); type: biochemical; conditions: FIG. 3 lanes 3, 4, 6 and 7
[2] = Chemical cleavage of the 3′O-blocking group of the free triphosphate by reducing reagent; type: physicochemical; conditions: heating with THPP or TCEP in 1×TE buffer at 55° C. for 5 min
Procedure: Cleavage of 3′O-[dithio-1-butynyl)-methyl)-thymidine triphosphate (15): The 3′O-bolcking group, alkyne dithioalkynemethyl ether from triphosphate 15 was cleaved by heating with 1, 4-dithiothreitol or (DTT) or tris(2-carboxyethyl) phosphine (TCEP) in 1×TE buffer (pH 9.5) at 55 degree Celsius for 5 min to afford thymidine triphosphate as shown in the Scheme 5.

[3] = test system: DNA polymerase ("CENT1"); assay: Enzymatic incorporation and cleavage studies: primer extension with compound 5 into a growing DNA chain (FIG. 2); type: biochemical
From the text: Enzymatic Incorporation and Cleavage Studies: (2R,3S,5R)-2-(((hydroxy((hydroxy(phosphonooxy)phosphoryl)oxy)phosphoryl)oxy)methyl)-5-(5-methyl-2,4-dioxo-3,4-dihydropyrimidin-1(2H)-yl)tetrahydrofuran-3-yl 3-azidopropanoate (5), a model compound, was synthesized similar to conditions of the relevant reactions disclosed in Scheme 1.

| Compound | enzymatic incorporation [1] | cleavage of the 3′O-azidoalkanoate [2] | blockage of further extension after incorporation of the terminator ([3]; "runaway" reaction in the presence of all four unmodified dNTPs and a polymerase, FIG. 2 lane 4) | cleavage of the label and the blocking group after incorporation ([3]; FIG. 2 lane 5) | further extension by the next base added after the cleavage ([3]; FIG. 2 lane 6) | enzymatic incorporation ([3]; in the presence of DNA polymerase ("CENT1"), FIG. 2 lane 3) |
| --- | --- | --- | --- | --- | --- | --- |
| C#CCCCSSCO[C@@H]1C[C@H](n2cc(C)c(=O)[nH]c2=O)O[C@@H]1COP(=O)(O)OP(=O)(O)OP(=O)(O)O [compound 15] | excellent enzymatic incorporation | – | – | – | – | – |
| Cc1cn([C@H]2C[C@@H](OC(=O)CCN=[N+]=[N-])[C@@H](COP(=O)(O)OP(=O)(O)OP(=O)(O)O)O2)c(=O)[nH]c1=O [compound 5, 3′O-(3-azidopropionyl)-thymidine triphosphate] | – | neatly cleaved | blockage of further extension | cleavage of the label and the blocking group | further extension by the next base added | can be used in enzymatic incorporation |
